Laboratory results from paper PMC7736868, “Fluorescent ligands for dopamine D2/D3 receptors” (Scientific Reports, 2020).
Where two headings read alike, the source gives them in different places.

Assays:
human D4R = target: T1, human D4R (Homo sapiens, UniProt P21917); assay: Radioligand competition, [3H]spiperone, CHO cell membranes
T1 sequence (P21917 1-419): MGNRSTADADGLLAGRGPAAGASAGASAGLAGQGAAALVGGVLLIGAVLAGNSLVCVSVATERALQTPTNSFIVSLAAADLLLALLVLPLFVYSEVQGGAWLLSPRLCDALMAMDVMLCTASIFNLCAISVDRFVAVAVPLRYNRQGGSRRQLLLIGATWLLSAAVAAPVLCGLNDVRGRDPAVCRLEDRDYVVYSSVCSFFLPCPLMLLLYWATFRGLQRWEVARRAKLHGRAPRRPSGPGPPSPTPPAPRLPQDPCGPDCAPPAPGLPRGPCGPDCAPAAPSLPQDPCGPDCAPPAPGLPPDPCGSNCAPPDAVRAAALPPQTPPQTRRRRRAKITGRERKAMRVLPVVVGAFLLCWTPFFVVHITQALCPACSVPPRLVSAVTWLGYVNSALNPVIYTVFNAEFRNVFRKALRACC

porcine α1-AR = assay: Radioligand competition, [3H]prazosin, porcine cerebral cortex homogenates; details: read-out: Ki pα1-AR, mean of n experiments
secNluc-D3R = secNluc-D3R (UniProt P35462+Q9GV45, A31E/A60N/A81I/F95D/I117V/K70R/L54V/L99Q/M102K/N193R/P142E/Q151K/Q38R/Q45L/V71I/Y165I); assay: NanoBRET association and dissociation kinetics, membranes; format: binding
Method: (a) Association of 10a at room temperature was measured by NanoBRET using secNluc-D3R membrane preparations and threefold serial dilutions of 10a (3.3–30 nM). […] Obtained IC50 values were transformed into Ki values applying the equation of Cheng and Prusoff[52]. […] Kinetic assays were monitored at room temperature and minimal possible cycle time of the CLARIOstar was used for each measurement. Data was fitted to one phase association and dissociation equations in PRISM6.0 to determine the kinetic constants. […] Addition of furimazine (1:5,000) and BRET measurements were carried out as described above. Data analysis was performed using the one site—fit Ki equation in PRISM6.0 to determine the inhibition constants (Ki) of the unlabeled ligands.

human isoform of D1R = human isoform of D1R (Homo sapiens, UniProt P21728); assay: Radioligand competition at human isoform of D1R; format: binding; details: assay performed with human isoform of D1R; [3H]SCH23,390 column
Method: Supplementary Table S1. Binding affinities of the test compounds. Binding affinities of the test compounds for porcine D1R, 5-HT 1AR, 5-HT 2R and α1-AR were determined by radioligand […]
a Data are indicated as m ean (and range) of (n) individual experim ents, each per form ed in triplicate; b assay perform ed with hum an isoform of D1R; c n. d. K i not determ ined as no com plete ligand displacem ent occurred;

human D2LR = human D2LR (Homo sapiens, UniProt P14416); assay: Radioligand competition, [3H]spiperone, CHO cell membranes
D2SR [1] = target: T2, D2SR (Homo sapiens, UniProt P14416); assay: β-arrestin-2 recruitment (Pathhunter, DiscoverX), HEK293 cells, GRK2 coexpressed; format: cell-based; design: expressed in transfected cells; details: for Emax: read-out: Emax β-arrestin-2 recruitment at D2SR, reference agonist quinpirole
D2SR [2] = target: T2, D2SR; assay: Radioligand competition, [3H]spiperone, CHO cell membranes
human D3R = human D3R (Homo sapiens, UniProt P35462); assay: as above
porcine 5-HT2R = target: T3, porcine 5-HT2R (Sus scrofa, UniProt P50129); assay: Radioligand competition, [3H]ketanserin, porcine cerebral cortex homogenates; format: binding; details: mean of n experiments, read-out: Ki p5-HT2R
T3 construct: homogenates of porcine cerebral cortex; from tissue; host or cells: porcine cerebral cortex homogenate

porcine 5-HT1AR = target: T4, porcine 5-HT1AR (Sus scrofa, UniProt A0A4X1UTF5); assay: Radioligand competition, [3H]WAY100,635, porcine cerebral cortex homogenates; format: binding; details: mean of n experiments, read-out: Ki p5-HT1AR
T4 construct: homogenates of porcine cerebral cortex; from tissue; host or cells: porcine cerebral cortex homogenate
T4 sequence (A0A4X1UTF5 1-422): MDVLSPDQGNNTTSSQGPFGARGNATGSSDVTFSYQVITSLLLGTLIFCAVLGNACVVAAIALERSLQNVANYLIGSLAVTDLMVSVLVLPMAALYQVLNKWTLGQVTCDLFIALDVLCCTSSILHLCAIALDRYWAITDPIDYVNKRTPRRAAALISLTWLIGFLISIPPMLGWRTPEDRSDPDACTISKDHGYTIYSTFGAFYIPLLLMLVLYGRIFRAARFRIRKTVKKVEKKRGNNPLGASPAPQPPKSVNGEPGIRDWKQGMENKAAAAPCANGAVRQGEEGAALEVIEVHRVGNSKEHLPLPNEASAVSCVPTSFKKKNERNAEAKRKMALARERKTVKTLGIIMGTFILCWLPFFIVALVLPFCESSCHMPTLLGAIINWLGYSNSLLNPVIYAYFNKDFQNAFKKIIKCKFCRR

porcine D1R = target: T5, porcine D1R (Sus scrofa, UniProt P50130); assay: Radioligand competition, [3H]SCH23390, porcine striatum homogenates; format: binding; details: [3H]SCH23,390; mean of n experiments; read-out: Ki pD1R
T5 construct: homogenates obtained from porcine striatum; from tissue; host or cells: porcine striatum homogenate

[3] = read-out: Ki hD4R, [3H]spiperone, mean ± SEM
[4] = read-out: Ki hD2LR, [3H]spiperone, mean ± SEM
[5] = read-out: EC50 β-arrestin-2 recruitment at D2SR, mean ± SEM
[6] = read-out: Ki hD2SR, [3H]spiperone, mean ± SEM
[7] = read-out: Ki hD3R, [3H]spiperone, mean ± SEM

T3 sequence (P50129 whole entry): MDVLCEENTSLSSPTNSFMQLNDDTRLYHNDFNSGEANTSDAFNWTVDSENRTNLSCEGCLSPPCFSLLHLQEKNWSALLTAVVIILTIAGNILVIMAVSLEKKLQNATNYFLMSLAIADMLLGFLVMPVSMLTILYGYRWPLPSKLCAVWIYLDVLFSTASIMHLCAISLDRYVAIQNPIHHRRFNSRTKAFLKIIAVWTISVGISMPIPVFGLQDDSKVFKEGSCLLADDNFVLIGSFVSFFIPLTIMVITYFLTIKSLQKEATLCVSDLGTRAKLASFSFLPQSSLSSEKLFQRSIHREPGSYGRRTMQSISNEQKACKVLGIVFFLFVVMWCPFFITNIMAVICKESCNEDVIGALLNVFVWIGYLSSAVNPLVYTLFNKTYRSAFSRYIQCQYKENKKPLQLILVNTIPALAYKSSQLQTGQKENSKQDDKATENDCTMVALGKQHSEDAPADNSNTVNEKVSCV
T2 sequence (P14416 1-414 isoform P14416-2): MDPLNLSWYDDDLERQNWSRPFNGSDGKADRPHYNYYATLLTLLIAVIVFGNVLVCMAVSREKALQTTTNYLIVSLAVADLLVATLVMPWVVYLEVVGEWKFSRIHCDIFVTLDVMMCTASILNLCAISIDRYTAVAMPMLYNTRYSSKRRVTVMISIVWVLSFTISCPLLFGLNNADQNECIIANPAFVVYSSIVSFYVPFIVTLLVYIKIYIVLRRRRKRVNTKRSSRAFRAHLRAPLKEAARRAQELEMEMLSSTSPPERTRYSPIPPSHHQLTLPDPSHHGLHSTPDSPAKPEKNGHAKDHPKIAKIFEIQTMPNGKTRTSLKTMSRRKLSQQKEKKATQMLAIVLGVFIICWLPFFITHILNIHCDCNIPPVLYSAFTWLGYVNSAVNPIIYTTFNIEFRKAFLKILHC
Chain of human D3R (P35462 whole entry): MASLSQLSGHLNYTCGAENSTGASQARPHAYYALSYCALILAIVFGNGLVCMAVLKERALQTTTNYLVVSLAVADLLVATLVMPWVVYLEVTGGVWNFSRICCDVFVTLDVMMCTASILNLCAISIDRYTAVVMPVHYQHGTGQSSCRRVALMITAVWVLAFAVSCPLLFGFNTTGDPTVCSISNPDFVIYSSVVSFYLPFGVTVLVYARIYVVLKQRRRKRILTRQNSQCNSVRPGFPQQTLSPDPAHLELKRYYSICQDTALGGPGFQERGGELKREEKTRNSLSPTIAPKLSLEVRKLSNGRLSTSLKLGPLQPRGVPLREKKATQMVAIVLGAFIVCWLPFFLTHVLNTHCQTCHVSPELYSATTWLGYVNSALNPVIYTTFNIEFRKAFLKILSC
T5 sequence (P50130 whole entry): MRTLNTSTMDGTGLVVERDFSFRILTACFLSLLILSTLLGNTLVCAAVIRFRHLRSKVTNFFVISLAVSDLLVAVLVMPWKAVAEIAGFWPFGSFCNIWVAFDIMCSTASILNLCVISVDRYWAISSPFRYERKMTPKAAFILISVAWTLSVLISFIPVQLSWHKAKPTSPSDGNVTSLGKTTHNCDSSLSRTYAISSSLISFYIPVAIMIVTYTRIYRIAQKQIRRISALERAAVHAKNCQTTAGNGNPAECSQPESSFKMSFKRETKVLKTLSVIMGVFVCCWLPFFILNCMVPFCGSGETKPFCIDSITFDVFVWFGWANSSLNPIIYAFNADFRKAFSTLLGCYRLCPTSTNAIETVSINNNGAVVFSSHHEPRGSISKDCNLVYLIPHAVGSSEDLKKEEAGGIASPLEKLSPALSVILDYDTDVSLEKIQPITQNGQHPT
Chain of secNluc-D3R (Q9GV45+P35462 fused with the stated changes): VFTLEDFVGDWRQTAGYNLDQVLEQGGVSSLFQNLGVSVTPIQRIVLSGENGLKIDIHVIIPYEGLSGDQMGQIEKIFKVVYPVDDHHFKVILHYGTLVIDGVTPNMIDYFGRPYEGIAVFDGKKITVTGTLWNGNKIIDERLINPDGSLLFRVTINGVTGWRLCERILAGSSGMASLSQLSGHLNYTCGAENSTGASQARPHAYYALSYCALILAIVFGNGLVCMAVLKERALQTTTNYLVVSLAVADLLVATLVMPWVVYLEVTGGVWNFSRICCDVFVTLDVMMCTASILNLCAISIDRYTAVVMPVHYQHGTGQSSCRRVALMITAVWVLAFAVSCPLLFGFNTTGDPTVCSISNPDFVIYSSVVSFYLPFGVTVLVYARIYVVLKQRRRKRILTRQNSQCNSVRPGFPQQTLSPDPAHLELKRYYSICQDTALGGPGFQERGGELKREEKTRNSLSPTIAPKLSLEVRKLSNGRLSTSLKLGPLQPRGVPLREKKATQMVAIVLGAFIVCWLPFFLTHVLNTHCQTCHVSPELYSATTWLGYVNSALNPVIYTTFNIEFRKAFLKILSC
Chain of human D2LR (P14416 whole entry): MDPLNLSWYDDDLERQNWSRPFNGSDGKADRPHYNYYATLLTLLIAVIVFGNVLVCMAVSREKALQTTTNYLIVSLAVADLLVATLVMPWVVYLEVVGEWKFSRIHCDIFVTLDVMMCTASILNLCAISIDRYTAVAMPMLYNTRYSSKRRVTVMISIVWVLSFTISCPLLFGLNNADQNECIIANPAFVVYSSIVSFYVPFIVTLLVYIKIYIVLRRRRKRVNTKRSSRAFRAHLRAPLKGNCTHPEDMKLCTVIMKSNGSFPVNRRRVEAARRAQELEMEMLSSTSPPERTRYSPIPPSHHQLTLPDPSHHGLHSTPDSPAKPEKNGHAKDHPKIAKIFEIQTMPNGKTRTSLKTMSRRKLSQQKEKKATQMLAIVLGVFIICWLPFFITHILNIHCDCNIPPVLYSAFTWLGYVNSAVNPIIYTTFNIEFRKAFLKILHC
Chain of human isoform of D1R (P21728 whole entry, canonical isoform): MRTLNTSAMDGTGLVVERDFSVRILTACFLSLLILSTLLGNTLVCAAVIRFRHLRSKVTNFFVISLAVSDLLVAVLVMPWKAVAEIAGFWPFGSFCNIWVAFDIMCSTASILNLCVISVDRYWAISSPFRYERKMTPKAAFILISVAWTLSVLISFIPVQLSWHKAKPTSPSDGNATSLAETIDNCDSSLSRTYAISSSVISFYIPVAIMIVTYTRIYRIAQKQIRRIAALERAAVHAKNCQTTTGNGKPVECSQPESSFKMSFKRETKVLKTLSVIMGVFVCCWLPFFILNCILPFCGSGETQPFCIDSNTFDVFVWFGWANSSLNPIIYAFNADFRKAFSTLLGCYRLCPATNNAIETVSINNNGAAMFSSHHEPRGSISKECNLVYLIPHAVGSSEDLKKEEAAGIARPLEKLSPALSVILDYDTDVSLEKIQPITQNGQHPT

SMILES | Ki (human D4R) | Ki (porcine α1-AR) | Ki (human D2LR) | Ki (D2SR [2]) | Ki (human D3R) | Ki (porcine 5-HT2R) | Ki (porcine 5-HT1AR) | Ki (porcine D1R) | also measured
CCCN(CCCCc1cn(-c2ccc(CNC(=O)c3ccc(-c4c5ccc(=NCC(F)(F)F)cc-5oc5cc(NCC(F)(F)F)ccc45)c(C(=O)O)c3)cc2)nn1)C1Cc2ccccc2C1 [10a] | 0.056 ± 0.004 µM | 0.1 µM | 0.046 ± 0.007 µM | 0.021 ± 0.004 µM | 0.00097 ± 0.00023 µM | – | – | – | koff (secNluc-D3R): 0.0009 s⁻¹; residence time (secNluc-D3R): 19 ± 1 min; kon (secNluc-D3R; read-out: Kon association rate constant): 170000 M⁻¹ s⁻¹; Ki (human isoform of D1R): 0.31 µM; EC50 (D2SR [1]; mean ± SEM): 0.41 ± 0.07 µM; Emax (D2SR [1]): 89 ± 3%
CN(C)c1cccc2c(S(=O)(=O)NCCCNC(=O)c3ccc(-n4cc(CCCCN5CCN(c6cccc(Cl)c6Cl)CC5)nn4)cc3)cccc12 [8b] | 0.13 ± 0.01 µM | 0.023 µM | 0.013 ± 0.006 µM | 0.0036 ± 0.0016 µM | 0.0019 ± 0.0009 µM | 0.38 µM | 0.17 µM | 0.34 µM | –
CCCN(CCCCc1cn(-c2ccc(C(=O)NCCCNC(=O)c3ccc(-c4c5ccc(=N)c(S(=O)(=O)O)c-5oc5c(S(=O)(=O)O)c(N)ccc45)c(C(=O)O)c3)cc2)nn1)C1Cc2ccccc2C1 [10c] | – | 0.15 µM | – | – | – | 2.2 µM | 0.085 µM | 5.1 µM | Ki (human D4R; [3]): 0.047 ± 0.009 µM; Ki (human D2LR; [4]): 0.023 ± 0.005 µM; EC50 (D2SR [1]; [5]): 0.1 ± 0.02 µM; Emax (D2SR [1]): 93 ± 3%; Ki (D2SR [2]; [6]): 0.015 ± 0.004 µM; Ki (human D3R; [7]): 0.00076 ± 0.00011 µM
CC(C)(C)c1nc(N2CCN(CCCCc3cn(-c4ccc(C#N)cc4)nn3)CC2)cc(C(F)(F)F)n1 [2d] | 5 µM | 1.1 µM | 0.36 ± 0.06 µM | 0.35 ± 0.03 µM | 0.0095 ± 0.0019 µM | 4.4 µM | 4.1 µM | 5.5 µM | –
COc1ccccc1N1CCN(CCCCc2cn(-c3ccc(CNS(=O)(=O)c4cccc5c(N(C)C)cccc45)cc3)nn2)CC1 [4c] | 0.032 ± 0.006 µM | 0.0011 µM | 0.017 ± 0.007 µM | 0.0084 ± 0.0034 µM | 0.0065 ± 0.0023 µM | 0.45 µM | 0.055 µM | 0.18 µM | –
N#Cc1ccc(-n2cc(CCCCN3CCN(c4cccc(Cl)c4Cl)CC3)nn2)cc1 [2b] | 0.12 ± 0.061 µM | 0.0049 µM | 0.015 ± 0.005 µM | 0.0063 ± 0.0002 µM | 0.001 ± 0.0002 µM | 1.1 µM | 0.26 µM | 0.54 µM | –
CCCN(CCCCc1cn(-c2ccc(CNS(=O)(=O)c3cccc4c(N(C)C)cccc34)cc2)nn1)C1Cc2ccccc2C1 [4a] | 0.027 ± 0.003 µM | 0.029 µM | 0.0052 ± 0.0006 µM | 0.0017 ± 0.0003 µM | 0.00029 ± 2e-05 µM | 0.22 µM | 0.027 µM | 0.59 µM | –
CCCN(CCCCc1cn(-c2ccc(C(=O)NCCCN)cc2)nn1)C1Cc2ccccc2C1 [7a] | 0.0085 ± 0.0008 µM | 0.037 µM | 0.0035 ± 0.0004 µM | 0.0018 ± 0.0002 µM | 0.00026 ± 3e-05 µM | 0.4 µM | 0.013 µM | 3.6 µM | –
CCCN(CCCCc1cn(-c2ccc(C(=O)NCCCNC(=O)Cc3ccc4c(c3)C(C)(C)C3=C5C=C6C7=[N+](CCC6OC5CCN34)c3ccc(S(=O)(=O)[O-])cc3C7(C)C)cc2)nn1)C1Cc2ccccc2C1 (stereo not drawn) [10b] | – | 0.087 µM | – | – | – | 0.33 µM | 0.12 µM | 5.1 µM | Ki (human D4R; [3]): 0.05 ± 0.007 µM; Ki (human D2LR; [4]): 0.01 ± 0.002 µM; EC50 (D2SR [1]; [5]): 0.41 ± 0.06 µM; Emax (D2SR [1]): 79 ± 3%; Ki (D2SR [2]; [6]): 0.0048 ± 0.001 µM; Ki (human D3R; [7]): 0.0009 ± 0.00026 µM
CCCN(CCCCc1cn(-c2ccc(C(=O)NCCCNS(=O)(=O)c3cccc4c(N(C)C)cccc34)cc2)nn1)C1Cc2ccccc2C1 [8a] | 0.01 ± 0.004 µM | 0.022 µM | 0.0012 ± 0.0002 µM | 0.00044 ± 0.00012 µM | 0.00032 ± 5e-05 µM | 0.69 µM | 0.07 µM | 1.1 µM | EC50 (D2SR [1]; mean ± SEM): 0.051 ± 0.011 µM; Emax (D2SR [1]): 98 ± 2%
CN(C)c1cccc2c(S(=O)(=O)NCc3ccc(-n4cc(CCCCN5CCN(c6cccc(Cl)c6Cl)CC5)nn4)cc3)cccc12 [4b] | 0.059 ± 0.02 µM | 0.0079 µM | 0.02 ± 0.008 µM | 0.0051 ± 0.0017 µM | 0.0019 ± 0.0007 µM | 0.39 µM | 0.078 µM | 0.19 µM | –
CN(C)c1cccc2c(S(=O)(=O)NCc3ccc(-n4cc(CCCCN5CCN(c6cc(C(F)(F)F)nc(C(C)(C)C)n6)CC5)nn4)cc3)cccc12 [4d] | > 10 µM | 3 µM | 7.6 µM | 6 µM | 0.011 ± 0.002 µM | > 10 µM | > 10 µM | > 10 µM | decrease of D2LR affinity by introduction of the dansyl moiety (factor) (human D2LR; 4d versus 2d): ~ 20; decrease of D2SR affinity by introduction of the dansyl moiety (factor) (D2SR [2]; 4d versus 2d): ~ 20
CCCN(CCCCc1cn(-c2ccc(C#N)cc2)nn1)C1Cc2ccccc2C1 [2a] | 0.033 ± 0.007 µM | 0.087 µM | 0.0087 ± 0.0025 µM | 0.0065 ± 0.0017 µM | 0.00041 ± 9e-05 µM | 0.85 µM | 0.052 µM | 3 µM | –
COc1ccccc1N1CCN(CCCCc2cn(-c3ccc(C#N)cc3)nn2)CC1 [2c] | 0.14 ± 0.01 µM | 0.0024 µM | 0.077 ± 0.017 µM | 0.034 ± 0.008 µM | 0.013 ± 0.004 µM | 0.6 µM | 0.025 µM | 1.1 µM | –
